Assay results reported in publication PMC8139662 (Journal of Virology, 2021).

System: polarized human airway epithelial cultures (HAEC)

In the case of `COc1cccc2[nH]c(C(=O)N[C@@H](CC(C)C)C(=O)N[C@@H](C[C@@H]3CCNC3=O)C(=O)CO)cc12` [PF-00835231], the “effect on transepithelial resistance (TEER) over time” value is reported as “we did not observe this trend”.
